Results on two molecules are retold here after patent US11260116B2, “Vaccine compositions comprising an amphipathic compound, a neoantigen and a hydrophobic carrier, and methods of use thereof” (IMMUNOVACCINE TECHNOLOGIES INC., priority 2016, dated 2022).

The conditions of data set [1]: cited from earlier work.
In the next data set the test system is Mut30 neoantigen. Nature of the data set: IFN-gamma ELISPOT of splenocytes from vaccinated mice. Type of data set: in vivo. Conditions: Example 3, FIG. 2; C57BL/6 VAF/Elite Crl mice; DNA- or RNA-based poly I:C; single immunization; eight days after vaccination.
The subject of a further data set is mutated peptide. Conditions: aqueous formulation, mice, cited from earlier work.

Like-named read-outs stand apart in the source and are kept apart here.

Protocol for Mut30 neoantigen: Pathogen free, C57BL/6 VAF/Elite® Crl mice, 6-8 weeks of age, were purchased from Charles River Laboratories (St. Constant, PQ) and housed according to institutional guidelines with water and food ad libitum under filter controlled air circulation.
Eight days after vaccination, mice were terminated and spleens collected. […] After 18 hours of culture, plates were developed and the number of spot forming units (SFU) counted using Immunospot Reader (C.T.L.). […] Statistical analysis was performed by 2-way ANOVA with Bonferroni post test comparing group responses to Mut30 peptide: *p<0.05, ***p<0.001.
Oil-based depot vaccine formulations were prepared with Mut30 antigen at a higher (100 micrograms) and lower (50 micrograms) dose.
To prepare the oil-based formulations, the Mut30 peptide (low or high dose amount), polyI:C adjuvant (DNA or RNA) and T-helper epitope (A16L peptide) were first reconstituted in an acetate buffer (0.1M, pH 9.5) with DOPC and cholesterol (Lipoid, Germany). The vaccine components were then lyophilized to form a dry cake. Just prior to injection, the dry cake was reconstituted in ISA51 VG oil (SEPPIC, France).
Mice in group 1 (n=6) were vaccinated with 100 microliters of an oil-based depot vaccine containing 100 micrograms of Mut30 neoantigen, 50 micrograms of A16L peptide, 40 micrograms of DNA-based poly I:C, 12 milligrams of DOPC and 1.2 milligrams of cholesterol. […]

`O=P1(N(CCCl)CCCl)NCCCO1` (stereo not shown) [Cyclophosphamide, N,N-bis(2-chloroethyl)-1,3,2-oxazaphosphinan-2-amine 2-oxide]: in data set [1] (intravenous infusion vs parenteral and oral), the “bioavailability by route of administration” value is given as “little difference in bioavailability”. Further, in data set [1] (patients), the “Total systemic clearance of CPA and its metabolites” value was 5 to 9 h. For the same molecule, the “elimination half-life on repeated administration” value in data set [1] (repeated administration) was “shorten elimination half-life”. In data set [1] (vary between patients), the “peak plasma levels of the parent” value is 3 to 11 h.

In the case of “Mut30: Kif18b neoantigen (K739N) from B16F10 melanoma, PSKPSFQEFVDWENVSPELNSTDQPFL (SEQ ID NO: 2), from Castle 2012 (Mut30 Neoantigen)”, the “IFN-gamma ELISPOT immune response to Mut30, high (100 micrograms) vs low (50 micrograms) dose” value in the data set on Mut30 neoantigen is on record as “No statistically significant difference”. In addition, the figures for the “immune reaction to Mut30 reported by Castle 2012” value with mutated peptide and with mutated peptide (listed as Mut30 neoantigen) were “strong immune reaction preferentially against the mutated peptide” and “strong mutation-specific immune responses”, respectively.
